Measured values published in patent publication US20100298376A1, “USE OF NOVEL NEUROPROTECTIVE 3-SUBSTITUTED INDOLONE COMPOSITIONS” (BOARD OF REGENTS, THE UNIVERSITY OF TEXAS SYSTEM, priority 2009, published 2010).
Read-outs that look alike come from different tables or passages of the source.

Tested on: cerebellar granule neurons
Settings: for % neuronal survival Mean ± SD: 24 hours, percent of HK control
Method: These compounds were analyzed for their neuroprotective activity in vitro. Granule neuron cultures were obtained from dissociated cerebella of 7-8 day old Wistar rats as known to one of ordinary skill in the art. Cells were plated in Basal Eagle's Medium with Earles salts (BME) supplemented with 10% fetal calf serum (FCS), 25 mM KCl, 2 mM glutamine (Invitrogen), and 100 μg/ml gentamycin on dishes (Nunc) coated with poly-L-lysine in 24-well dishes at a density 1×10^6 cells/well. Cytosine arabinofuranoside (10 μM) was added to the culture medium 18-22 hours after plating to prevent replication of non-neuronal cells that yields highly pure culture of granule neurons. The neuronal cultures were maintained for 7-8 days prior to treatments.
This experimental model of neuronal apoptosis has been used widely used to understand the molecular mechanisms underlying neurodegeneration and to identify biological and chemical agents with neuroprotective efficacy. For this, the cells were rinsed once and then maintained in low K^+ medium (serum-free BME medium, 5 mM KCl; referred to as LK), or in the case of control cultures, in high K^+ medium (serum-free BME medium, supplemented with 20 mM KCl; referred to as HK). Each compound was tested at three different concentrations of 1 μM, 5 μM, and 25 μM. The 25 μM concentration was included to evaluate neurotoxicity. For treatments, the chemical compounds (dissolved in dimethylsulfoxide) were added directly to LK medium at the time of the switch from HK at concentrations of 1 μM, 5 μM, or 25 μM. Viability was assessed 24 hours later. Each compound was tested in duplicate (at each of the concentrations) and the experiment repeated at least 3 times. Although all compounds were solubilized in dimethylsulfoxide (DMSO), the amount of DMSO in the cultures never exceeded 0.1% (v/v).
The viability status of neuronal cultures treated with HK, LK, or LK medium supplemented with various compounds was evaluated by phase contrast microscopy and quantified by staining cell nuclei with 4′,6′-diamidino2-phenylindole hydrochloride (DAPI). Briefly, the cells were fixed in 4% paraformaldehyde for 20 minutes at 4′C. After washing in phosphate buffered saline, DAPI (1 μg/ml in phosphate buffered saline) was added for 15 min at room-temperature and viewed under ultraviolet light (260 nm). Cells with condensed or fragmented nuclei were scored as dead. […] Statistical analysis was performed using an unpaired, two-tailed Student's t test, compared to mean neuronal survival of control cultures receiving LK treatment and the quantitative data are presented in Tables 1 and 2 for each compound.

[1] = LK medium, concentration not specified

Compound | % neuronal survival Mean ± SD (Table 2, 1 μM in LK medium) [%] | % neuronal survival Mean ± SD (Table 2, 5 μM in LK medium) [%] | % neuronal survival Mean ± SD (Table 2, 25 μM in LK medium) [%] | neuroprotective activity (in words) [1] | % neuronal survival Mean ± SD (Table 1, 1 μM in LK medium) [%] | % neuronal survival Mean ± SD (Table 1, 5 μM in LK medium) [%] | % neuronal survival Mean ± SD (Table 1, 25 μM in LK medium) [%] | neuroprotective activity (in words) (at all three concentrations) | neurotoxicity (in words)
O=C1Nc2ccccc2/C1=C/c1ccc[nH]1 [Compound 35] | 56.0 ± 17.21 | 51.1 ± 7.06 | 3.88 ± 9.58 |  |  |  |  |  | 
O=C1Nc2ccc(Cl)cc2/C1=C\c1ccccc1 [Compound 12, (E)-3-Benzylidene-5-chloroindolin-2-one] |  |  |  | not effective | 58.6 ± 3.27 | 63.8 ± 8.63 | 41.1 ± 21.41 |  | 
(Z)-5-Bromo (3-(1H-pyrrol-2′-yl)methylene)indolin-2-one [Compound 37] | 75.5 ± 14.58 | 94.2 ± 0.15 | 93.0 ± 1.38 | one of the most potent effective neuroprotective agents discovered |  |  |  |  | 
CN(C)c1ccc(/C=C2/C(=O)Nc3ccc(Br)cc32)cc1 [Compound 20, (E)-5-Bromo-3-(4′-(dimethylamino)benzylidene)indolin-2-one] |  |  |  | not effective | 56.5 ± 2.28 | 54.9 ± 9.18 | 68.6 ± 9.38 |  | 
O=C1Nc2ccccc2/C1=C/c1ccccc1[N+](=O)[O-] [Compound 6] |  |  |  |  | 75.8 ± 3.20 | 76.6 ± 7.14 | 81.5 ± 13.72 |  | 
O=C1Nc2ccc(F)cc2/C1=C\c1ccccc1 [Compound 33, (E)-3-Benzylidene-5-fluoroindolin-2-one] |  |  |  | not effective | 53.4 ± 2.12 | 51.9 ± 15.56 | 31.5 ± 17.51 |  | 
O=C1Nc2ccc([N+](=O)[O-])cc2/C1=C/c1ccc[nH]1 [Compound 39] | 84.4 ± 3.41 | 90.1 ± 6.55 | 87.9 ± 1.40 |  |  |  |  |  | 
COc1cc(/C=C2\C(=O)Nc3ccc(Cl)cc32)cc(OC)c1OC [Compound 10, (Z)-5-Chloro-3-(3′, 4′,5′-trimethoxybenzylidene)indolin-2-one] |  |  |  |  | 81.1 ± 9.81 | 71.0 ± 7.26 | 57.1 ± 10.13 |  | 
CC(=O)c1ccc2c(c1)/C(=C/c1ccc[nH]1)C(=O)N2 [Compound 38] | 69.5 ± 12.61 | 87.3 ± 22.50 | 87.1 ± 24.50 | moderate protective activity |  |  |  |  | 
Cc1ccc(/C=C2/C(=O)Nc3ccc(Cl)cc32)cc1 [Compound 13, (E)-5-Chloro-3-(4′-methybenzylidene)indolin-2-one] |  |  |  |  | 70.0 ± 17.50 | 70.6 ± 13.86 | 67.4 ± 17.40 |  | 
COc1cc(/C=C2\C(=O)Nc3ccccc32)cc(OC)c1OC [Compound 3, (Z)-3-(3′, 4′,5′-Trimethoxybenzylidene)indolin-2-one] |  |  |  | reduced activity | 50.8 ± 7.50 | 59.9 ± 7.98 | 61.3 ± 11.35 | not protective | 
O=C1Nc2ccc(Cl)cc2/C1=C\c1c(Cl)cccc1Cl [Compound 11, (E)-5-Chloro-3-(2′,6′-dichlorobenzylidene)indolin-2-one] |  |  |  |  | 56.4 ± 14.41 | 63.8 ± 3.46 | 45.7 ± 24.05 |  | 
O=C1Nc2ccc([N+](=O)[O-])cc2/C1=C/c1cc(Br)cc(Br)c1 [Compound 22, (Z)-3-(3′,5′-Dibromobenzylidene)-5-nitroindolin-2-one] |  |  |  |  | 78.1 ± 5.82 | 78.7 ± 15.86 | 74.5 ± 9.12 |  | 
O=C1Nc2ccccc2C1=CC=Cc1ccccc1 [Compound 4, 3-(3′-Phenylallylidene)indolin-2-one] |  |  |  | moderately protective | 86.0 ± 2.03 | 83.6 ± 18.88 | 81.1 ± 6.22 | moderately efficacious | non-toxic
COc1cc(/C=C2\C(=O)Nc3ccc(F)cc32)cc(OC)c1OC [Compound 32, (Z)-5-Fluoro-3-(3′, 4′,5′-trimethoxybenzylidene)indolin-2-one] |  |  |  | not effective | 59.2 ± 1.77 | 51.9 ± 7.14 | 31.9 ± 1.77 |  | 
O=C1Nc2ccc([N+](=O)[O-])cc2/C1=C\c1c(Cl)cccc1Cl [Compound 24, (E)-3-(2′,6′-Dichlorobenzylidene)-5-nitroindolin-2-one] |  |  |  |  | 76.4 ± 9.84 | 69.9 ± 11.25 | 70.7 ± 8.50 |  | 
O=C1Nc2ccccc2/C1=C\c1ccco1 [Compound 45, (E)-3-(Furan-2′-ylmethylene)indoline-2-one] | 70.4 ± 8.35 | 82.8 ± 5.22 | 90.2 ± 3.91 | excellent activity |  |  |  |  | 
CN(C)c1ccc(/C=C2/C(=O)Nc3ccc(Cl)cc32)cc1 [Compound 15, (E)-5-Chloro-3-(4′-(dimethylamino)benzylidene)indolin-2-one] |  |  |  |  | 51.8 ± 15.66 | 55.8 ± 16.94 | 79.7 ± 4.69 |  | 
O=C1Nc2ccc(Cl)cc2/C1=C/c1ccc[nH]1 [Compound 36] | 71.2 ± 0.02 | 84.0 ± 16.97 | 82.6 ± 10.18 | moderate protective activity |  |  |  |  | 
O=C1Nc2ccc([N+](=O)[O-])cc2/C1=C/c1ccccc1 [Compound 25, (Z)-3-Benzylidene-5-nitroindolin-2-one] |  |  |  |  | 80.1 ± 18.01 | 78.4 ± 17.54 | 54.3 ± 3.63 | moderately efficacious | 
O=C1Nc2ccccc2/C1=C\c1c(Cl)cccc1Cl [Compound 5, (E)-3-(2′,6′-Dichlorobezylidene)indolin-2-one] |  |  |  | ineffective | 54.6 ± 10.27 | 52.9 ± 3.94 | 24.5 ± 12.38 |  | toxic
(Z)-5-Bromo-3-(thien-2′-ylmethylene)indolin-2-one [Compound 43] | 56.8 ± 5.62 | 58.3 ± 9.82 | 66.4 ± 4.56 |  |  |  |  |  | 
O=C1Nc2ccc([N+](=O)[O-])cc2/C1=C\C=Cc1ccccc1[N+](=O)[O-] [Compound 27] |  |  |  |  | 78.6 ± 6.84 | 51.9 ± 7.50 | 78.6 ± 16.33 |  | 
O=C1Nc2ccc([N+](=O)[O-])cc2/C1=C\C=C\c1ccccc1 [Compound 26] |  |  |  |  | 80.1 ± 4.21 | 78.6 ± 13.04 | 83.9 ± 9.28 |  | 
CC(=O)Oc1c(Br)cc(/C=C2/C(=O)Nc3ccc(Cl)cc32)cc1Br [Compound 9, (E)-2,6-Dibromo-4-(5′-chloro-2′-oxoindolin-3-ylidene)methyl)phenyl acetate] |  |  |  | reduced activity | 73.0 ± 5.59 | 84.6 ± 16.19 | 75.2 ± 31.54 |  | 
CN(C)c1ccc(/C=C2\C(=O)Nc3ccc([N+](=O)[O-])cc32)cc1 [Compound 29, (Z)-3-(4′-(Dimethylamino)benzylidene)-5-nitroindolin-2-one] |  |  |  |  | 70.4 ± 9.37 | 67.6 ± 10.31 | 66.9 ± 9.86 |  | 
COc1ccc(/C=C2/C(=O)Nc3ccc(Br)cc32)cc1 [Compound 19, (E)-5-Bromo-3-(4′-methoxybenzylidene)indolin-2-one] |  |  |  | not effective | 57.1 ± 4.51 | 59.5 ± 9.10 | 60.5 ± 9.56 |  | 
